Source: patent publication US10828298B2, “Pharmaceutical composition containing 2-{4-[N-(5,6-diphenylpyrazin-2-yl)-N-isopropylamino]butyloxy]-N-(methylsulfonyl)acetamide” (NIPPON SHINYAKU CO., LTD., priority 2015, dated 2020)

How the values were obtained:
[1] = molecular target: prostaglandin I2 (PGI2) receptor (Homo sapiens, UniProt P43119); settings: known, PTL 1; cited from earlier work
[2] = Stability of Compound (I) itself to temperature and humidity (formulation study); format: physicochemical

Sequence of prostaglandin I2 (PGI2) receptor (P43119 whole entry): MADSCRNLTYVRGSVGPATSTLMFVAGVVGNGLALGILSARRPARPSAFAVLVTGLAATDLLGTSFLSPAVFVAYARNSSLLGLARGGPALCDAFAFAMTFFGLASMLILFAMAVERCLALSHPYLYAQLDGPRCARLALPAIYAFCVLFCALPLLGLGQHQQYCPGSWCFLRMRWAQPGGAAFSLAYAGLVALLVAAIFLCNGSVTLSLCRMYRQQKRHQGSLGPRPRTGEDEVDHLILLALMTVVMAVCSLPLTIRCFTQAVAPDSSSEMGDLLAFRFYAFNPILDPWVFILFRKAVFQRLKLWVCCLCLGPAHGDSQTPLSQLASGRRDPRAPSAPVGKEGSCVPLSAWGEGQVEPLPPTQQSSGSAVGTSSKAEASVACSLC

Stability of Compound (I) itself, in words [2]: stable to temperature and humidity
Structure (SMILES): CC(C)N(CCCCOCC(=O)NS(C)(=O)=O)c1cnc(-c2ccccc2)c(-c2ccccc2)n1 [Compound (I), 2-{4-[N-(5,6-diphenylpyrazin-2-yl)-N-isopropylamino]butyloxy}-N-(methylsulfonyl)acetamide]
PGI2 receptor agonistic activity, in words [1]: excellent
